Source: patent publication US20230011571A1, “SMALL MOLECULE FURIN INHIBITORS FOR TREATING INFECTIOUS DISEASES” (BP Asset V, Inc., priority 2019, published 2023)

Experiments:
Type in all cases: cell-based
[1] = test system: Chikungunya virus (CHIKV); test: microbe, parasite or virus in culture; details: Chikungunya virus, Vero, 48 h, read-out: Percent viral inhibition CHKV
dengue virus (DENV) = test: microbe, parasite or virus in culture; details: Dengue virus, Vero, 120 h, read-out: Percent viral inhibition DENY
Marburg virus (MARV) = test: organism not typed; details: Vero, 72 h, read-out: Percent viral inhibition MARV

Q: Which results are given for CC(=O)NCC1CCN(Cc2cc(Oc3ccc(N4CCN(CC5(CO)CC5)CC4)nc3)nc(-c3cc(Cl)cc(Cl)c3)c2)CC1 [Example 34, N-((1-((2-(3,5-dichlorophenyl)-6-((6-(4-((1-(hydroxymethyl)cyclopropyl)methyl)piperazin-1-yl)pyridin-3-yl)oxy)pyridin-4-yl)methyl)piperidin-4-yl)methyl)acetamide]?
A: inhibition at 1 µM [1]: 1.42%; inhibition at 1 µM (dengue virus (DENV)): 46.8%; inhibition at 1 µM (Marburg virus (MARV)): 30.3%

Q: For CCNC(=O)CC1CCN(Cc2cc(Oc3ccc(N4CCN(CCCS(C)(=O)=O)CC4)nc3)nc(-c3cc(Cl)cc(Cl)c3)c2)CC1 [Example 36, 2-(1-((2-(3,5-dichlorophenyl)-6-((6-(4-(3-(methylsulfonyl)propyl)piperazin-1-yl)pyridin-3-yl)oxy)pyridin-4-yl)methyl)piperidin-4-yl)-N-ethylacetamide], which inhibition at 1 µM [1] is on record?
A: 5.78%

Q: And the inhibition at 1 µM (dengue virus (DENV))?
A: 38%

Q: And the inhibition at 1 µM (Marburg virus (MARV))?
A: 52.5%

Q: For CNCc1cc(Oc2cnc(N3CCN(CCCS(C)(=O)=O)CC3)nc2)nc(-c2cc(Cl)cc(Cl)c2)c1 [Example 37, 1-(2-(3,5-dichlorophenyl)-6-((2-(4-(3-(methylsulfonyl)propyl)piperazin-1-yl)pyrimidin-5-yl)oxy)pyridin-4-yl)-N-methylmethanamine], which inhibition at 1 µM [1] is on record?
A: 32.9%

Q: What about the inhibition at 1 µM (dengue virus (DENV)) of the same molecule?
A: 100%

Q: And the inhibition at 1 µM (Marburg virus (MARV))?
A: 56.6%

Q: Which results are given for NS(=O)(=O)CC1CCN(Cc2cc(Oc3ccc(N4CCN(CCC(=O)O)CC4)nc3)nc(-c3cc(Cl)cc(Cl)c3)c2)CC1 [Example 38, 3-(4-(5-((6-(3,5-dichlorophenyl)-4-((4-(sulfamoylmethyl)piperidin-1-yl)methyl)pyridin-2-yl)oxy)pyridin-2-yl)piperazin-1-yl)propanoic acid]?
A: inhibition at 1 µM [1]: 39.1%; inhibition at 1 µM (dengue virus (DENV)): 14.2%; inhibition at 1 µM (Marburg virus (MARV)): 50%

Q: For CS(=O)(=O)CC1CCN(Cc2cc(Oc3ccc(N4CCN(CCC(=O)O)CC4)nc3)nc(-c3cc(Cl)cc(Cl)c3)c2)CC1 [Example 39, 3-(4-(5-((6-(3,5-dichlorophenyl)-4-((4-((methylsulfonyl)methyl)piperidin-1-yl)methyl)pyridin-2-yl)oxy)pyridin-2-yl)piperazin-1-yl)propanoic acid], which inhibition at 1 µM [1] is on record?
A: 23.7%

Q: What about the inhibition at 1 µM (dengue virus (DENV)) of the same molecule?
A: 54.7%

Q: And the inhibition at 1 µM (Marburg virus (MARV))?
A: 60.1%

Q: What does the source list for CNC(=O)NCC1CCN(Cc2cc(Oc3ccc(N4CCN(CCO)CC4)nc3)nc(-c3cc(Cl)cc(Cl)c3)c2)CC1 [Example 40, 1-((1-((2-(3,5-dichlorophenyl)-6-((6-(4-(2-hydroxyethyl)piperazin-1-yl)pyridin-3-yl)oxy)pyridin-4-yl)methyl)piperidin-4-yl)methyl)-3-methylurea]?
A: inhibition at 1 µM [1]: 3.24%; inhibition at 1 µM (dengue virus (DENV)): 0%; inhibition at 1 µM (Marburg virus (MARV)): 0%

Q: How did the inhibition at 1 µM [1] turn out when CNC(=O)NCC1CCN(Cc2cc(Oc3ccc(N4CCN(CCC(=O)O)CC4)nc3)nc(-c3cc(Cl)cc(Cl)c3)c2)CC1 [Example 41, 3-(4-(5-((6-(3,5-dichlorophenyl)-4-((4-((3-methylureido)methyl)piperidin-1-yl)methyl)pyridin-2-yl)oxy)pyridin-2-yl)piperazin-1-yl)propanoic acid] was run?
A: 30.1%

Q: And the inhibition at 1 µM (dengue virus (DENV))?
A: 68.7%

Q: What about the inhibition at 1 µM (Marburg virus (MARV)) of the same molecule?
A: 43%

Q: Which results are given for CC(=O)NCC1CCN(Cc2cc(Oc3ccc(N)cc3)cc(-c3cc(Cl)cc(Cl)c3)c2)CC1 [Example 42, N-((1-((5-(4-aminophenoxy)-3′,5′-dichloro-[1,1′-biphenyl]-3-yl)methyl)piperidin-4-yl)methyl)acetamide]?
A: inhibition at 1 µM [1]: 7.42%; inhibition at 1 µM (dengue virus (DENV)): 24%; inhibition at 1 µM (Marburg virus (MARV)): 0%

Q: Which results are given for CS(=O)(=O)NCC1CCN(Cc2cc(Oc3ccc(N4CCN(CCC(=O)O)CC4)nc3)nc(-c3cc(Cl)cc(Cl)c3)c2)CC1 [Example 44, 3-(4-(5-((6-(3,5-dichlorophenyl)-4-((4-(methylsulfonamidomethyl)piperidin-1-yl)methyl)pyridin-2-yl)oxy)pyridin-2-yl)piperazin-1-yl)propanoic acid]?
A: inhibition at 1 µM [1]: 35.5%; inhibition at 1 µM (dengue virus (DENV)): 69%; inhibition at 1 µM (Marburg virus (MARV)): 49%

Q: Which results are given for CC(=O)NCC1CCN(Cc2cc(Oc3ccc(N)cn3)cc(-c3cc(Cl)cc(Cl)c3)c2)CC1 [Example 45, N-((1-((5-((5-aminopyridin-2-yl)oxy)-3′,5′-dichloro-[1,1′-biphenyl]-3-yl)methyl)piperidin-4-yl)methyl)acetamide]?
A: inhibition at 1 µM [1]: 0%; inhibition at 1 µM (dengue virus (DENV)): 0%; inhibition at 1 µM (Marburg virus (MARV)): 18.4%

Q: Which results are given for CNC(=O)NCC1CCN(Cc2cc(Oc3cnc(N4CCN(CCCS(N)(=O)=O)CC4)nc3)nc(-c3cc(Cl)cc(Cl)c3)c2)CC1 [Example 48, 3-(4-(5-((6-(3,5-dichlorophenyl)-4-((4-((3-methylureido)methyl)piperidin-1-yl)methyl)pyridin-2-yl)oxy)pyrimidin-2-yl)piperazin-1-yl)propane-1-sulfonamide]?
A: inhibition at 1 µM [1]: 15.2%; inhibition at 1 µM (dengue virus (DENV)): 26%; inhibition at 1 µM (Marburg virus (MARV)): 15.7%

Q: COC(=O)NCC1(F)CCN(Cc2cc(Oc3cnc(N4CCN(CCC(=O)O)CC4)nc3)nc(-c3cc(Cl)cc(Cl)c3)c2)CC1 [Example 51, 3-(4-(5-((6-(3,5-dichlorophenyl)-4-((4-fluoro-4-(((methoxycarbonyl)amino)methyl)piperidin-1-yl)methyl)pyridin-2-yl)oxy)pyrimidin-2-yl)piperazin-1-yl)propanoic acid] was tested. Which inhibition at 1 µM [1] did it give?
A: 21.1%

Q: What about the inhibition at 1 µM (dengue virus (DENV)) of the same molecule?
A: 56.7%

Q: What about the inhibition at 1 µM (Marburg virus (MARV)) of the same molecule?
A: 43.6%

Q: How did the inhibition at 1 µM [1] turn out when CN1CCN(c2ncc(Oc3cc(CN4CCC(CCO)CC4)cc(-c4cc(Cl)cc(Cl)c4)n3)cn2)CC1 [Example 52, 2-(1-((2-(3,5-dichlorophenyl)-6-((2-(4-methylpiperazin-1-yl)pyrimidin-5-yl)oxy)pyridin-4-yl)methyl)piperidin-4-yl)ethanol] was run?
A: 26.3%

Q: What about the inhibition at 1 µM (dengue virus (DENV)) of the same molecule?
A: 45.6%

Q: What about the inhibition at 1 µM (Marburg virus (MARV)) of the same molecule?
A: 29.9%

Q: CN1CCN(c2ncc(Oc3cc(CN4CCC(OCC(=O)O)CC4)cc(-c4cc(Cl)cc(Cl)c4)n3)cn2)CC1 [Example 53, 2-((1-((2-(3,5-dichlorophenyl)-6-((2-(4-methylpiperazin-1-yl)pyrimidin-5-yl)oxy)pyridin-4-yl)methyl)piperidin-4-yl)oxy)acetic acid] was tested. Which inhibition at 1 µM [1] did it give?
A: 30%

Q: And the inhibition at 1 µM (dengue virus (DENV))?
A: 42.5%

Q: And the inhibition at 1 µM (Marburg virus (MARV))?
A: 53.5%

Q: NC(=O)OCCN1CCN(Cc2cc(Oc3cnc(N4CCN(CCC(=O)O)CC4)nc3)nc(-c3cc(Cl)cc(Cl)c3)c2)CC1 [Example 54, 3-(4-(5-((4-((4-(2-(carbamoyloxy)ethyl)piperazin-1-yl)methyl)-6-(3,5-dichlorophenyl)pyridin-2-yl)oxy)pyrimidin-2-yl)piperazin-1-yl)propanoic acid] was tested. Which inhibition at 1 µM [1] did it give?
A: 36.8%

Q: And the inhibition at 1 µM (dengue virus (DENV))?
A: 70.5%

Q: And the inhibition at 1 µM (Marburg virus (MARV))?
A: 62.7%

Q: Which inhibition at 1 µM [1] does the source give for NC(=O)OCCN1CCN(Cc2cc(Oc3ccc(N4CCN(CCC(=O)O)CC4)nc3)nc(-c3cc(Cl)cc(Cl)c3)c2)CC1 [Example 55, 3-(4-(5-((4-((4-(2-(carbamoyloxy)ethyl)piperazin-1-yl)methyl)-6-(3,5-dichlorophenyl)pyridin-2-yl)oxy)pyridin-2-yl)piperazin-1-yl)propanoic acid] here?
A: 16.8%

Q: What about the inhibition at 1 µM (dengue virus (DENV)) of the same molecule?
A: 3.58%

Q: And the inhibition at 1 µM (Marburg virus (MARV))?
A: 40.2%

Q: How did the inhibition at 1 µM [1] turn out when COC(=O)NCC1CCN(Cc2cc(Oc3cnc(N4CC5CCC(C4)N5CCC(=O)O)nc3)nc(-c3cc(Cl)cc(Cl)c3)c2)CC1 [Example 56, 3-(3-(5-((6-(3,5-dichlorophenyl)-4-((4-(((methoxycarbonyl)amino)methyl)piperidin-1-yl)methyl)pyridin-2-yl)oxy)pyrimidin-2-yl)-3,8-diazabicyclo[3.2.1]octan-8-yl) propanoic acid] was run?
A: 31.3%

Q: And the inhibition at 1 µM (dengue virus (DENV))?
A: 57.1%

Q: And the inhibition at 1 µM (Marburg virus (MARV))?
A: 60.9%

Q: What does the source list for CC(CCN1CCN(c2ncc(Oc3cc(CN4CCC(CCO)CC4)cc(-c4cc(Cl)cc(Cl)c4)n3)cn2)CC1)C(=O)O (stereo not drawn) [Example 57, 4-(4-(5-((6-(3,5-dichlorophenyl)-4-((4-(2-hydroxyethyl)piperidin-1-yl)methyl)pyridin-2-yl)oxy)pyrimidin-2-yl)piperazin-1-yl)-2-methylbutanoic acid]?
A: inhibition at 1 µM [1]: 21.1%; inhibition at 1 µM (dengue virus (DENV)): 37.6%; inhibition at 1 µM (Marburg virus (MARV)): 54.4%

Q: What does the source list for CCC(=O)NCC1CCN(Cc2cc(Oc3cnc(N4CCN(CCC(C)C(=O)O)CC4)nc3)nc(-c3cc(Cl)cc(Cl)c3)c2)CC1 (stereo not drawn) [Example 59, 4-(4-(5-((6-(3,5-dichlorophenyl)-4-((4-(propionamidomethyl)piperidin-1-yl)methyl)pyridin-2-yl)oxy)pyrimidin-2-yl)piperazin-1-yl)-2-methylbutanoic acid]?
A: inhibition at 1 µM [1]: 35.1%; inhibition at 1 µM (dengue virus (DENV)): 53.7%; inhibition at 1 µM (Marburg virus (MARV)): 57.5%

Q: With CC(O)CCN1CCN(c2ncc(Oc3cc(CN4CCC(F)CC4)cc(-c4cc(Cl)cc(Cl)c4)n3)cn2)CC1 (stereo not drawn) [Example 60, 4-(4-(5-((6-(3,5-dichlorophenyl)-4-((4-fluoropiperidin-1-yl)methyl)pyridin-2-yl)oxy)pyrimidin-2-yl)piperazin-1-yl)butan-2-ol] as the molecule, how does the inhibition at 1 µM [1] read?
A: 38.8%

Q: And the inhibition at 1 µM (dengue virus (DENV))?
A: 79%

Q: What about the inhibition at 1 µM (Marburg virus (MARV)) of the same molecule?
A: 53.6%

Q: For COC(=O)NCC1CCN(Cc2cc(Oc3cnc(N4CCN(CCC(=O)O)CC4)nc3)nc(-c3cc(Cl)cc(Cl)c3)c2)CC1 [Example 62, 3-(4-(5-((6-(3,5-dichlorophenyl)-4-((4-(((methoxycarbonyl)amino)methyl)piperidin-1-yl)methyl)pyridin-2-yl)oxy)pyrimidin-2-yl)piperazin-1-yl)propanoic acid], which inhibition at 1 µM [1] is on record?
A: 35.2%

Q: And the inhibition at 1 µM (dengue virus (DENV))?
A: 19.1%

Q: What about the inhibition at 1 µM (Marburg virus (MARV)) of the same molecule?
A: 19.9%

Q: How did the inhibition at 1 µM [1] turn out when COC(=O)NCC1CCN(Cc2cc(Oc3cnc(N4CCN(C)CC4)nc3)nc(-c3cc(Cl)cc(Cl)c3)c2)CC1 [Example 63, methyl((1-((2-(3,5-dichlorophenyl)-6-((2-(4-methylpiperazin-1-yl)pyrimidin-5-yl)oxy)pyridin-4-yl)methyl)piperidin-4-yl)methyl)carbamate] was run?
A: 0%

Q: What about the inhibition at 1 µM (dengue virus (DENV)) of the same molecule?
A: 2.35%

Q: And the inhibition at 1 µM (Marburg virus (MARV))?
A: 14.7%
